Data from patent US12383545B1, “Treatment of migraine” (priority 2018, dated 2025).
Values joined by “and” are separate entries in the source; they are usually repeats but may differ in a detail not shown here. Equal values may be shown once.

Tests used:
Type in all cases: in vivo, human
[1] = tested on: participants with episodic migraine; assay: Study A: Patient Global Impression of Change (PGI-C) and satisfaction with study medication; settings: for PGI-C responders (“much better” or “very much better”), percentage / Satisfaction with study medication (“satisfied” or “extremely satisfied”), percentage: Week 12, mITT; for PGI-C response, OR (95% CI) vs placebo / Satisfaction with study medication, OR (95% CI) vs placebo: week 12
Source text: Additional prespecified responder analyses included the Patient Global Impression of Change (PGI-C), defined as “much better” or “very much better” at week 12, and satisfaction with study medication, defined as “satisfied” or “extremely satisfied” at weeks 4, 8, and 12.

[2] = tested on: participants with episodic migraine; assay: Study C: 40-week open-label extension, safety and tolerability of atogepant 60 mg once daily
Description: An open-label extension study for trial completers evaluated the long-term safety and tolerability of oral atogepant 60 mg daily for the prevention of migraine in participants with episodic migraine.
Participants in this trial (Study C) rolled over from the lead in trial (Study A) and were treated with atogepant 60 mg once daily for 40-weeks, with a 4-week safety follow-up period. Only safety data were collected.
Of 695 participants screened, a total of 685 participants took at least one dose of study medication and were included in the safety population. Overall, the mean age was 41.8 years. Female participants accounted for 88.2% of the Safety Population. White and Black or African American patients accounted for 84.4% and 12.6%, respectively. Mean BMI was 30.58 kg/m2.

Bilirubin Total = assay: Example 5: postbaseline hepatic laboratory parameter values of clinical interest, Bilirubin Total; settings: safety population
Source text: This study consisted of a 4-week screening and baseline period and a 12-week double-blind treatment period, which was followed by a 4-week safety follow-up period. Total study duration is 20-weeks.
To be randomized, eligible patients had to be 18 to 75 years of age (inclusive), have a history of migraine with or without aura for at least 1 year consistent with a diagnosis according to the International Classification of Headache Disorders criteria, 3rd edition, beta version, have experienced 4 to 14 migraine/probable migraine headache days and <15 headache days in the 28-day baseline period. Patients who had clinically significant hematologic, endocrine, cardiovascular, cerebrovascular, pulmonary, renal, hepatic, gastrointestinal, or neurologic disease were excluded from the study.
A total of 834 patients were randomized to double-blind treatment (ITT population), and 825 patients took at least 1 dose of double-blind IP (safety population). […] The primary efficacy variable was the change from baseline in mean monthly migraine/probable migraine headache days across the 12-week treatment period. The secondary efficacy variables were the change from baseline in mean monthly headache days across the 12-week treatment period, proportion of patients with at least a 50% reduction in mean monthly migraine/probable migraine headache days across the 12-week treatment period, and the change from baseline in mean monthly acute medication use days across the 12-week treatment period.

[3] = week 12, range across atogepant groups
[4] = Atogepant 60 mg QD, Safety Population N = 685

C[C@@H]1[C@H](c2c(F)ccc(F)c2F)C[C@H](NC(=O)c2cnc3c(c2)C[C@@]2(C3)C(=O)Nc3ncccc32)C(=O)N1CC(F)(F)F [atogepant]
PGI-C responders (“much better” or “very much better”), percentage ([1]; 10 mg): 72.1%
Satisfaction with study medication (“satisfied” or “extremely satisfied”), percentage ([1]; 10 mg): 77.7%
PGI-C response, OR (95% CI) vs placebo ([1]; 10 mg): 3.05
Satisfaction with study medication, OR (95% CI) vs placebo ([1]; 10 mg): 2.77
PGI-C responders (“much better” or “very much better”), percentage ([1]; 30 mg): 73.2%
Satisfaction with study medication (“satisfied” or “extremely satisfied”), percentage ([1]; 30 mg): 80.3%
PGI-C response, OR (95% CI) vs placebo ([1]; 30 mg): 3.33
Satisfaction with study medication, OR (95% CI) vs placebo ([1]; 30 mg): 3.44
PGI-C responders (“much better” or “very much better”), percentage ([1]; 60 mg): 76.1%
Satisfaction with study medication (“satisfied” or “extremely satisfied”), percentage ([1]; 60 mg): 82.6%
PGI-C response, OR (95% CI) vs placebo ([1]; 60 mg): 3.83
Satisfaction with study medication, OR (95% CI) vs placebo ([1]; 60 mg): 3.58
odds of achieving PGI-C response, times that of placebo ([1]; each atogepant group): ≥ 3 times
odds for being treatment satisfaction responders, times greater than placebo ([1]; week 12, atogepant groups): 2-4 times
proportion of patients satisfied with treatment [1, 3]: 78%-83%
proportion of patients who were PGI-C responders [1, 3]: 72%-76% and 70-80%
deaths observed ([2]; 60 mg once daily, 40 weeks): No deaths
TEAE by Preferred Term: Corona virus infection [2, 4]: 15 (2.2) n (%)
TEAE by Preferred Term: Influenza [2, 4]: 17 (2.5) n (%)
Deaths, participants ([2]; atogepant 60 mg once daily, 40 weeks, Safety Population N = 685): (0.0) %
Participants with postbaseline Bilirubin Total (umol/L) >=1 * ULN, (%) (Bilirubin Total; Atogepant 10 mg QD (N = 93)): (3.3) %
Participants with postbaseline Bilirubin Total (umol/L) >=1 * ULN, n/N1 (Bilirubin Total; Atogepant 10 mg QD (N = 93)): 3/92
Participants with postbaseline Bilirubin Total (umol/L) >=1.5 * ULN, (%) (Bilirubin Total; Atogepant 10 mg QD (N = 93)): (1.1) %
Participants with postbaseline Bilirubin Total (umol/L) >=1.5 * ULN, n/N1 (Bilirubin Total; Atogepant 10 mg QD (N = 93)): 1/92
Participants with postbaseline Bilirubin Total (umol/L) >=2 * ULN, n/N1 (Bilirubin Total; Atogepant 10 mg QD (N = 93)): 0
Participants with postbaseline Bilirubin Total (umol/L) >=3 * ULN, n/N1 (Bilirubin Total; Atogepant 10 mg QD (N = 93)): 0
Participants with postbaseline Bilirubin Total (umol/L) >=5 * ULN, n/N1 (Bilirubin Total; Atogepant 10 mg QD (N = 93)): 0
Participants with postbaseline Bilirubin Total (umol/L) >=10 * ULN, n/N1 (Bilirubin Total; Atogepant 10 mg QD (N = 93)): 0
Participants with postbaseline Bilirubin Total (umol/L) >=20 * ULN, n/N1 (Bilirubin Total; Atogepant 10 mg QD (N = 93)): 0
Participants with postbaseline Bilirubin Total (umol/L) >=1 * ULN, (%) (Bilirubin Total; Atogepant 30 mg BID (N = 86)): (3.6) %
Participants with postbaseline Bilirubin Total (umol/L) >=1 * ULN, n/N1 (Bilirubin Total; Atogepant 30 mg BID (N = 86)): 3/84
Participants with postbaseline Bilirubin Total (umol/L) >=1.5 * ULN, (%) (Bilirubin Total; Atogepant 30 mg BID (N = 86)): (1.2) %
Participants with postbaseline Bilirubin Total (umol/L) >=1.5 * ULN, n/N1 (Bilirubin Total; Atogepant 30 mg BID (N = 86)): 1/84
Participants with postbaseline Bilirubin Total (umol/L) >=2 * ULN, n/N1 (Bilirubin Total; Atogepant 30 mg BID (N = 86)): 0
Participants with postbaseline Bilirubin Total (umol/L) >=3 * ULN, n/N1 (Bilirubin Total; Atogepant 30 mg BID (N = 86)): 0
Participants with postbaseline Bilirubin Total (umol/L) >=5 * ULN, n/N1 (Bilirubin Total; Atogepant 30 mg BID (N = 86)): 0
Participants with postbaseline Bilirubin Total (umol/L) >=10 * ULN, n/N1 (Bilirubin Total; Atogepant 30 mg BID (N = 86)): 0
Participants with postbaseline Bilirubin Total (umol/L) >=20 * ULN, n/N1 (Bilirubin Total; Atogepant 30 mg BID (N = 86)): 0
Participants with postbaseline Bilirubin Total (umol/L) >=1 * ULN, (%) (Bilirubin Total; Atogepant 30 mg QD (N = 183)): (8.4) %
Participants with postbaseline Bilirubin Total (umol/L) >=1 * ULN, n/N1 (Bilirubin Total; Atogepant 30 mg QD (N = 183)): 15/179
Participants with postbaseline Bilirubin Total (umol/L) >=1.5 * ULN, (%) (Bilirubin Total; Atogepant 30 mg QD (N = 183)): (1.1) %
Participants with postbaseline Bilirubin Total (umol/L) >=1.5 * ULN, n/N1 (Bilirubin Total; Atogepant 30 mg QD (N = 183)): 2/179
Participants with postbaseline Bilirubin Total (umol/L) >=2 * ULN, n/N1 (Bilirubin Total; Atogepant 30 mg QD (N = 183)): 0
Participants with postbaseline Bilirubin Total (umol/L) >=3 * ULN, n/N1 (Bilirubin Total; Atogepant 30 mg QD (N = 183)): 0
Participants with postbaseline Bilirubin Total (umol/L) >=5 * ULN, n/N1 (Bilirubin Total; Atogepant 30 mg QD (N = 183)): 0
Participants with postbaseline Bilirubin Total (umol/L) >=10 * ULN, n/N1 (Bilirubin Total; Atogepant 30 mg QD (N = 183)): 0
Participants with postbaseline Bilirubin Total (umol/L) >=20 * ULN, n/N1 (Bilirubin Total; Atogepant 30 mg QD (N = 183)): 0
Participants with postbaseline Bilirubin Total (umol/L) >=1 * ULN, (%) (Bilirubin Total; Atogepant 60 mg BID (N = 91)): (1.1) %
Participants with postbaseline Bilirubin Total (umol/L) >=1 * ULN, n/N1 (Bilirubin Total; Atogepant 60 mg BID (N = 91)): 1/88
Participants with postbaseline Bilirubin Total (umol/L) >=1.5 * ULN, n/N1 (Bilirubin Total; Atogepant 60 mg BID (N = 91)): 0
Participants with postbaseline Bilirubin Total (umol/L) >=2 * ULN, n/N1 (Bilirubin Total; Atogepant 60 mg BID (N = 91)): 0
Participants with postbaseline Bilirubin Total (umol/L) >=3 * ULN, n/N1 (Bilirubin Total; Atogepant 60 mg BID (N = 91)): 0
Participants with postbaseline Bilirubin Total (umol/L) >=5 * ULN, n/N1 (Bilirubin Total; Atogepant 60 mg BID (N = 91)): 0
Participants with postbaseline Bilirubin Total (umol/L) >=10 * ULN, n/N1 (Bilirubin Total; Atogepant 60 mg BID (N = 91)): 0
Participants with postbaseline Bilirubin Total (umol/L) >=20 * ULN, n/N1 (Bilirubin Total; Atogepant 60 mg BID (N = 91)): 0
Participants with postbaseline Bilirubin Total (umol/L) >=1 * ULN, (%) (Bilirubin Total; Atogepant 60 mg QD (N = 186)): (4.4) %
Participants with postbaseline Bilirubin Total (umol/L) >=1 * ULN, n/N1 (Bilirubin Total; Atogepant 60 mg QD (N = 186)): 8/181
Participants with postbaseline Bilirubin Total (umol/L) >=1.5 * ULN, (%) (Bilirubin Total; Atogepant 60 mg QD (N = 186)): (1.1) %
Participants with postbaseline Bilirubin Total (umol/L) >=1.5 * ULN, n/N1 (Bilirubin Total; Atogepant 60 mg QD (N = 186)): 2/181
Participants with postbaseline Bilirubin Total (umol/L) >=2 * ULN, n/N1 (Bilirubin Total; Atogepant 60 mg QD (N = 186)): 0
Participants with postbaseline Bilirubin Total (umol/L) >=3 * ULN, n/N1 (Bilirubin Total; Atogepant 60 mg QD (N = 186)): 0
Participants with postbaseline Bilirubin Total (umol/L) >=5 * ULN, n/N1 (Bilirubin Total; Atogepant 60 mg QD (N = 186)): 0
Participants with postbaseline Bilirubin Total (umol/L) >=10 * ULN, n/N1 (Bilirubin Total; Atogepant 60 mg QD (N = 186)): 0
Participants with postbaseline Bilirubin Total (umol/L) >=20 * ULN, n/N1 (Bilirubin Total; Atogepant 60 mg QD (N = 186)): 0
